According to US20240207410A1, “STABILIZED LIQUID COMPOSITIONS COMPRISING A LEVODOPA-TYROSINE CONJUGATE AND USES THEREOF” (NeuroDerm, Ltd., priority 2021, published 2024):
Where a SMILES comes first, the peptide text is derived from it. [ ]: non-standard residue; d: D form. Dopa = N[C@@H](Cc1ccc(O)c(O)c1)C(=O)O

Columns and labels:
[1] = Long-term stability of 30% LD-Tyrosine/0.75% carbidopa at 2-8° C.; assay type: physicochemical
Description: The formulation also included 0.5% ascorbic acid (Asc), 0.5% N-acetyl cysteine (NAC) and 0.3% Tween 80. The formulation was stored at 2-8° C. for the time indicated, and % recovery and % LD-Tyr-DKP formation (an impurity) were tested. Percent recovery remained high over time. The DKP impurity accumulated over time.

red blood cells (RBC) [2] = experiment: Blood/plasma ratio, partitioning into red blood cells, rat blood ex vivo; assay type: in vitro ADME
red blood cells (RBC) [3] = experiment: Blood/plasma ratio, partitioning into red blood cells, minipig blood ex vivo; assay type: in vitro ADME; conditions: for KRBC/PL: 50 ng/mL
red blood cells (RBC) [4] = experiment: Blood/plasma ratio, partitioning into red blood cells, human blood ex vivo; assay type: in vitro ADME; conditions: human blood
[5] = Maximal Tolerated Dose (MTD), bolus SC; assay type: in vivo; conditions: in vivo; study MTD Exp 001, Rat/SD, bolus SC, 90, 150, 300, 625 mg/kg
Description: (§1) In vivo non-clinical safety studies were conducted in both the rat and minipig. Additionally, an assessment of the local infusion site reaction of LD-Tyr was performed as part of a PK study in domestic pigs.

Rat/SD = experiment: Maximal Tolerated Dose (MTD), bolus SC; assay type: in vivo; conditions: study MTD Exp 001, Rat/SD, bolus SC, highest dose (625 mg/kg), males
Description: as §1

in vivo = conditions: female, pig, sc, analyte LD-Tyr
Description: A series of PK studies was completed in domestic pigs using several LD-Tyr formulations, as detailed in Table 26, and dosing regimens, as detailed in Table 27. The PK profile of LD-Tyr as well as the LD resulting therefrom was determined following 18-hour continuous SC infusion to female domestic pigs. Each formulation was administered at one infusion site per animal using a Crono-ND infusion pump (Canè SpA Medical Technology, Rivoli, Italy) connected to an infusion set (Accu-chek®, FlexLink, Roche).
(§2) Blood samples for the determination of LD-Tyr and LD plasma levels were collected from the pigs at the following timepoints: […]

[6] = PK of high concentration LD-Tyr formulations comprising TRIS, 0.5% CD (Example 15B); assay type: in vivo, domestic pig; conditions: female, pig, plasma, sc, analyte LD-Tyr, 18-hour continuous SC infusion
Description: A series of PK and local-tox studies was completed in domestic pigs using several high concentration LD-Tyr formulations comprising 0.5% CD and varying amounts of TRIS, as detailed in Table 33, and dosing regimens, as detailed in Table 34. The PK profile of LD-Tyr as well as the LD resulting therefrom was determined following 18-hour continuous SC infusion to female domestic pigs. Each formulation was administered at one infusion site per animal using a Crono-ND infusion pump (Canè SpA Medical Technology, Rivoli, Italy) connected to an infusion set (Accu-chek®, FlexLink, Roche).
as §2

[7] = PK following bolus and 2-hr continuous SC administration of 30% LD-Tyr (Example 18); assay type: in vivo, domestic pig; conditions: pig; for AUC(0-t) / Cmax / Tmax: female, plasma, sc, analyte LD-Tyr, 30/1 % w/v, bolus and 2-hr continuous SC administration
Description: A series of PK and local-tox studies was completed in domestic pigs using several concentrations LD-Tyr formulations comprising varying amounts of CD, as detailed in Table 42, and dosing regimens, as detailed in Table 43. […] Each formulation was administered at one infusion site per animal using a Crono-ND infusion pump (Canè SpA Medical Technology, Rivoli, Italy) connected to an infusion set (Accu-chek®, FlexLink, Roche).
Blood samples for the determination of LD-Tyr and LD plasma levels were collected from the pigs at the following timepoints:
0 (pre-dose), 10 min (end of bolus), 15 min, 30 min, 45 min, 60 min, 75 min, 90 min, 120 min and 240 min following the beginning of the bolus administration.

[8] = PK of LD following 18-hr SC administration of LD-Tyr in a formulation comprising ethanol (Example 22); assay type: in vivo, domestic pig; conditions: for AUC(0-t) / Cmax / Tmax: pig, plasma, analyte LD-Tyr, 18-hr continuous SC, formulation comprising ethanol
Description: The objective of this study is to determine the pharmacokinetics (PK) of LD-Tyr following an 18-hr continuous subcutaneous (SC) administration in domestic pigs of a formulation comprising 30& LD-Tyr and ethanol. Table 53 provides the LD-Tyr formulation tested in this study.
Animals were dosed with 2700 or 5400 mg of LD-Tyr in the formulation of Table 53 in an 18-hr continuous subcutaneous administration in an infusion volume of 9 or 18 ml (9 mL×2 sites).

[9] = LD-Tyr/CD 30/0.5 % w/v, daily dose 2775/37.5 mg, n = 2
[10] = LD-Tyr/CD 37/0.5 % w/v, daily dose 2640/30 mg, n = 3
[11] = LD-Tyr/CD 44/0.5 % w/v, daily dose 2700/45 mg, n = 1
[12] = bolus volume 0.7 mL, bolus dose 210/7 mg, daily dose 510/17 mg
[13] = bolus volume 1.2 mL, bolus dose 360/12 mg, daily dose 660/22 mg
[14] = bolus volume 1.7 mL, bolus dose 510/17 mg, daily dose 810/27 mg
[15] = 2700 mg, LD-Tyr/CD daily dose 2700/117 mg, n = 5
[16] = 5400 mg, LD-Tyr/CD daily dose 5400/234 mg, n = 3

With N[C@@H](Cc1ccc(O)c(O)c1)C(=O)N[C@@H](Cc1ccc(O)cc1)C(=O)O [LD-Tyr, levodopa-tyrosine (LD-Tyr) conjugate of the formula (II)] (H-[Dopa]-Tyr-OH) the “% DKP” value ([1]; 1 month) was 1.88 % area, the “mg/mL (concentration in formulation)” value ([1]; 1 month) was 295.74 mg/mL and the “% DKP” value ([1]; 1 week) was 0.99 % area. For the same compound, the “mg/mL (concentration in formulation)” value ([1]; 1 week) was 294.13 mg/mL, the “% DKP” value ([1]; 2 months) was 2.60 % area and the “mg/mL (concentration in formulation)” value ([1]; 2 months) was 302.47 mg/mL. For the same compound, the “% DKP” value ([1]; 2 weeks) was 1.19 % area, the “mg/mL (concentration in formulation)” value ([1]; 2 weeks) was 304.25 mg/mL and the “% DKP” value ([1]; 3 months) was 4.04 % area. For the same compound, the “mg/mL (concentration in formulation)” value ([1]; 3 months) was 296.57 mg/mL, the “% DKP” value ([1]; t = 0) was 0.86 % area and the “mg/mL (concentration in formulation)” value ([1]; t = 0) was 297.62 mg/mL. For the same compound, the “KRBC/PL versus time of incubation” value (red blood cells (RBC) [2]; rat blood) was “increased with the time of incubation”, the RBC binding (red blood cells (RBC) [2]; rat blood) was “limited RBC binding” and the “partition coefficient between RBC and plasma (KRBC/PL)” value (red blood cells (RBC) [2]; rat blood, 50, 150 and 2500 ng/mL) was “below five”. The RBC binding (red blood cells (RBC) [3]; minipig blood) was “limited RBC binding”, the KRBC/PL (red blood cells (RBC) [3]; minipig blood, after 30 minutes (declined)) was 0.0 and the KRBC/PL (red blood cells (RBC) [3]; minipig blood, at 15 and 30 minutes) was 1. The “partition coefficient between RBC and plasma (KRBC/PL)” value (red blood cells (RBC) [3]; minipig blood, 50, 150 and 2500 ng/mL) was “below five”, the “KRBC/PL versus time of incubation” value (red blood cells (RBC) [3]; minipig blood, two highest concentrations (150 and 2500 ng/mL)) was “increased with the time of incubation” and the RBC binding (red blood cells (RBC) [4]) was “no RBC binding”. The KRBC/PL (red blood cells (RBC) [4]; all measured) was “below one”, the MTD [5] was 300 mg/kg and the Mortality (Rat/SD) was “Mortality (1/4 males)”. It also gave a Tmax (in vivo) of 10.4 h, an AUC(0-t) [6, 9] of 4800 ng·h/mL and a Cmax [6, 9] of 445 ng/mL. The Tmax [6, 9] was 10 h, the AUC(0-t) [6, 10] was 5600 ng·h/mL and the Cmax [6, 10] was 491 ng/mL. It also gave a Tmax [6, 10] of 15 h, an AUC(0-t) [6, 11] of 534 ng·h/mL and a Cmax [6, 11] of 49.6 ng/mL. The Tmax [6, 11] was 2 h, the AUC(0-t) [7, 12] was 1180 ng·h/mL and the Cmax [7, 12] was 573 ng/mL. It also gave a Tmax [7, 12] of 1.3 h, an AUC(0-t) [7, 13] of 1630 ng·h/mL and a Cmax [7, 13] of 933 ng/mL. It also gave a Tmax [7, 13] of 0.9 h, an AUC(0-t) [7, 14] of 2430 ng·h/mL and a Cmax [7, 14] of 1350 ng/mL. The Tmax [7, 14] was 1.2 h, the “systemic exposure to LD versus bolus injection volume” value ([7]; in vivo) was “dose-proportional increase” and the dose proportionality ([8]; 2700 and 5400 mg, 18-hr continuous SC administration) was “dose proportionality”. For the same compound, the AUC(0-t) [8, 15] was 8210 ± 4120 ng·h/mL, the Cmax [8, 15] was 707 ± 283 ng/mL and the Tmax [8, 15] was 14 h. It also gave an AUC(0-t) [8, 16] of 21200 ± 8570 ng·h/mL, a Cmax [8, 16] of 1610 ± 902 ng/mL and a Tmax [8, 16] of 14 h.
